Test results published in patent publication US20110039808A1, “Multitarget Compounds Active at a PPAR and Cannabinoid Receptor” (priority 2007, published 2011).

Tests used:
PPAR-γ receptor [1] = biological target: T1, PPAR-γ receptor (Homo sapiens, UniProt P37231); assay: biochemical; format: biochemical
T1 sequence (P37231 1-505): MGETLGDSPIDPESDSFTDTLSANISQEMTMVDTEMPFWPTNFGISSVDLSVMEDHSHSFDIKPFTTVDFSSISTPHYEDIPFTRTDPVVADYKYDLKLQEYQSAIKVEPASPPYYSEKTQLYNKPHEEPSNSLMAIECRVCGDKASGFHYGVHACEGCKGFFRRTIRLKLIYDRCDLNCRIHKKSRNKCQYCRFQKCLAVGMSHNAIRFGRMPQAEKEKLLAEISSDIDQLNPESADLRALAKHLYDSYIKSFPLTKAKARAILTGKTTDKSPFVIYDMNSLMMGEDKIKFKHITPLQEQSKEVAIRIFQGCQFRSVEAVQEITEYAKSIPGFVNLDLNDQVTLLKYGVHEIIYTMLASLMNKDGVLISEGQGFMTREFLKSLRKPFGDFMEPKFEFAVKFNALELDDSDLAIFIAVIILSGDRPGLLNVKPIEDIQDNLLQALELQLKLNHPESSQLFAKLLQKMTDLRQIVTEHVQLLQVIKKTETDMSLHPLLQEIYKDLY

PPAR-γ receptor [2] = biological target: T2, PPAR-γ receptor (Homo sapiens, UniProt P37231); assay: cell-based
T2 sequence (P37231 238-505 limits assumed): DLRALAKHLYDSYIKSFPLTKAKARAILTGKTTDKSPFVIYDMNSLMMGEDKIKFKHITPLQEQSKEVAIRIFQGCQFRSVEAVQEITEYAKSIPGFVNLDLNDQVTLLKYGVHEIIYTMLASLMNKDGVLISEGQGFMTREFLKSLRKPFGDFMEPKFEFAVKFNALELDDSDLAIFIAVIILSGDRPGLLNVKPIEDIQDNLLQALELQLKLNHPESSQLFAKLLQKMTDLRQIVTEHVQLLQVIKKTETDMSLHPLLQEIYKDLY
Source text: FIG. 14: Activity of a number of compounds of the invention at the PPAR-γ receptor in cell based system (GeneBlazer) versus rosglitazone control.

| Compound | EC50 (PPAR-γ receptor [1]) | EC50 (PPAR-γ receptor [2]) | activity in initial dose-response curves (PPAR-γ receptor [1]; initial dose-response curves, statement follows the PPAR-γ cell free table) |
| --- | --- | --- | --- |
| Cc1c(C(=O)c2cccc3ccccc23)c2ccccc2n1CCNc1ccc(C(=O)O)c(O)c1 [DWIN1 (IX), 2-Hydroxy-4-{2-[2-methyl-3-(naphthalene-1-carbonyl)-indol-yl]-ethylamino}-benzoic acid] | 493 nM | 800 nM | – |
| Cc1c(CCNc2ccc(C(=O)O)c(O)c2)c2ccccc2n1C(=O)c1cccc(Cl)c1Cl [DWIN8 (XII), 4-{2-[1-(2,3-Dichloro-benzoyl)-2-methyl-1H-indol-3-yl]-ethylamino}-2-hydroxy-benzoic acid] | – | – | not active |
| Cc1c(C(=O)c2cccc3ccccc23)c2ccccc2n1CCNc1ccc(O)c(C(=O)O)c1 [DWIN2 (X), 2-Hydroxy-5-{2-[2-methyl-3-(naphthalene-1-carbonyl)-indol-1-yl]-ethylamino}-benzoic acid] | 358 nM | 1050 nM | – |
